# Reference: paper PMC9299836 (eLife, 2022)
# Values joined by “and” are separate entries in the source; they are usually repeats but may differ in a detail not shown here. Equal entries are not always repeated.
# Assays:
# mGluR2 [1] = biological target: mGluR2 (Mus musculus, UniProt Q14BI2, A548F); assay: Live-cell FRET, azi-CRD (cysteine-rich domain) sensor in HEK293T cells; settings: for azi-CRD normalized FRET response, Mean / azi-CRD normalized FRET response, individual cell: Glutamate + 10μM modulator (NAM); for azi-CRD normalized FRET response, Mean: maximal response normalized to 1mM glutamate; for azi-CRD normalized FRET response, individual cell: single-cell replicate
# mGluR2 [2] = biological target: mGluR2 (Mus musculus, UniProt Q14BI2); assay: Functional calcium imaging, SNAP-mGluR2 (no FLAG-tag) with chimeric G protein Gqo5 in HEK293T cells; type: cell-based; set-up: Full length mGluR2 construct with an amber codon (TAG) mutation of amino acid A548 (azi-CRD) or N-terminal SNAP-tag (SNAP-mGluR2); host or cells: HEK293T; settings: for Intracellular Ca2+ Response (normalized to 1mM glutamate), Mean: Glutamate + 15nM MNI-137
# mGluR2 [3] = biological target: mGluR2 (Mus musculus, UniProt Q14BI2, INS715F); assay: Live-cell FRET, azi-ECL2 (7TM domain, extracellular loop 2) sensor in HEK293T cells; settings: for Mean normalized azi-ECL2 FRET response: glutamate + 10μM modulator, maximal response normalized to 1mM glutamate;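 on all read-outs here: Cy3/Cy5 click-labeled sensor, whole-membrane ROIs per cell, apparent FRET after bleed-through correction, ΔFRET as treatment minus pre-treatment signal, at room temperature, at least three biological replicates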
# Chain of mGluR2 (Mus musculus, UniProt Q14BI2, INS715F) (Q14BI2 with tags, fused parts or gaps INS715F): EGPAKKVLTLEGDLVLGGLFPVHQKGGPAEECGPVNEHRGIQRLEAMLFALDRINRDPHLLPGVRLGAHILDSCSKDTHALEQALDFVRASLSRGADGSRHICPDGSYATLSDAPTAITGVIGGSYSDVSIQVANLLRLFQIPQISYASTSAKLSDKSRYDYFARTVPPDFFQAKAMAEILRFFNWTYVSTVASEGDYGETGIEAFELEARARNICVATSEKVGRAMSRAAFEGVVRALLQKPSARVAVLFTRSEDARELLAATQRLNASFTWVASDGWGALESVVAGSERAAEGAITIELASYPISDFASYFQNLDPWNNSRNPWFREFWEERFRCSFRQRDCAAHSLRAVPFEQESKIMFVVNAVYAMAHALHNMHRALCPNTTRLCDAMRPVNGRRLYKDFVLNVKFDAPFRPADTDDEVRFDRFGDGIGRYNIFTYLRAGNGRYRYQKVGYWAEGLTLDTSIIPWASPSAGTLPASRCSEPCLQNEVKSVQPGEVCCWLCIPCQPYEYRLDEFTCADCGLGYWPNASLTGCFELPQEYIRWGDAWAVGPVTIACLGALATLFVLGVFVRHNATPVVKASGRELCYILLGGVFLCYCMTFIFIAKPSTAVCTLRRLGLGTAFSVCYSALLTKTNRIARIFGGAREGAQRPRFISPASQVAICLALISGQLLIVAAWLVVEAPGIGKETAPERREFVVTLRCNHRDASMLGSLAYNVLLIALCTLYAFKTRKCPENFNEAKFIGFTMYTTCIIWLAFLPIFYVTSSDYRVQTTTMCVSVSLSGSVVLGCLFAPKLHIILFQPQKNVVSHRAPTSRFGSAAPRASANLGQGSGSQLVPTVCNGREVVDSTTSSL
# Chain of mGluR2 (Mus musculus, UniProt Q14BI2, A548F) (Q14BI2 19-872 A548F): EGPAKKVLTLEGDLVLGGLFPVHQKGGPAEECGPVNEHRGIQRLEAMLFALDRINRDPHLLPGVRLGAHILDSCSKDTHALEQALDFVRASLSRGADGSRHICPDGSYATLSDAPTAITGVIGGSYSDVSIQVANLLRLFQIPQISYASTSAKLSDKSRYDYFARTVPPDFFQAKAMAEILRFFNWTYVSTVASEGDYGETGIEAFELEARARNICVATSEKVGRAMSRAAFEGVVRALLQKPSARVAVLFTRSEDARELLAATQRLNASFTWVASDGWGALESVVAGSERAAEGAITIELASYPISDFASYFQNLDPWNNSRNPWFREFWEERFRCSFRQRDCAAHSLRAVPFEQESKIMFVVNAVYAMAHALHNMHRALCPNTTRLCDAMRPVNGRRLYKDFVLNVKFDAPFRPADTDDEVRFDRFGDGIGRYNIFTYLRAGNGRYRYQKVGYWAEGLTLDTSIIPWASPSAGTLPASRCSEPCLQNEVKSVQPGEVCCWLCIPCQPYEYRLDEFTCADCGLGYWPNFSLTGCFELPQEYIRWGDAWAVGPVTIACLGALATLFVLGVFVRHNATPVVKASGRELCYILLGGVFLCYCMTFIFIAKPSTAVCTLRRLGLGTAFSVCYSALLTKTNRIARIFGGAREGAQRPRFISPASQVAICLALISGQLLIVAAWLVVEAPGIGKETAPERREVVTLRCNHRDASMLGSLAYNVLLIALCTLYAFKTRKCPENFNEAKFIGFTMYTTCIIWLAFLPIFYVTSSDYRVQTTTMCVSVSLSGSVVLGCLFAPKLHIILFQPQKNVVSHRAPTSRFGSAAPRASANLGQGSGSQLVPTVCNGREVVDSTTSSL
# Chain of mGluR2 (Mus musculus, UniProt Q14BI2) (Q14BI2 19-872): as the sequence (Q14BI2 19-872 A548F) above, with F530A counted along it
substance,measurement,setting,value
MNI-137,"azi-CRD normalized FRET response, Mean",mGluR2 [1]; log[Glutamate] (M) -4.52288,0.6022
same,"azi-CRD normalized FRET response, Mean",mGluR2 [1]; log[Glutamate] (M) -5,0.3809
same,"azi-CRD normalized FRET response, Mean",mGluR2 [1]; log[Glutamate] (M) -5.39794,0.1786
same,"azi-CRD normalized FRET response, individual cell",mGluR2 [1]; log[Glutamate] (M) -5.39794,0.1624 and 0.1634 and 0.1646 and 0.1674 and 0.1243 and 0.1237 and 0.1526 and 0.2062 and 0.1399 and 0.1742 and 0.1692 and 0.2509 and 0.1433 and 0.1979 and 0.2166 and 0.2171 and 0.2594 and 0.1653 and 0.2159 and 0.1911 and 0.1708 and 0.1695 and 0.153
same,"azi-CRD normalized FRET response, Mean",mGluR2 [1]; log[Glutamate] (M) -5.82391,0.06813
same,"azi-CRD normalized FRET response, individual cell",mGluR2 [1]; log[Glutamate] (M) -5.82391,0.04445 and 0.05893 and 0.04553 and 0.06348 and 0.04636 and 0.04299 and 0.07924 and 0.06124 and 0.04784 and 0.04123 and 0.06211 and 0.06632 and 0.1186 and 0.05696 and 0.08797 and 0.1273 and 0.06713 and 0.0889 and 0.0871 and 0.09832 and 0.05971 and 0.05629 and 0.07113 and 0.07112 and 0.06208 and 0.06258 and 0.06477
same,"azi-CRD normalized FRET response, Mean",mGluR2 [1]; log[Glutamate] (M) -6.52288,0.03124
same,"azi-CRD normalized FRET response, individual cell",mGluR2 [1]; log[Glutamate] (M) -6.52288,0.0188 and 0.01987 and 0.01609 and 0.02693 and 0.05479 and 0.05033 and 0.00719 and 0.0225 and 0.06219 and 0.01914 and 0.02051 and 0.02647 and 0.05278 and 0.03127 (2×) and 0.02714 and 0.04081 and 0.0402 and 0.04434 and 0.02897 and 0.03138 and 0.03664 and 0.02295
same,"azi-CRD normalized FRET response, Mean",mGluR2 [1]; log[Glutamate] (M) -7,0
same,"azi-CRD normalized FRET response, individual cell",mGluR2 [1]; log[Glutamate] (M) -7,0
same,Hill slope of glutamate titration,"mGluR2 [1]; azi-CRD sensor, + 10 μM modulator",1.10
same,Live-cell FRET max response normalized to 1mM glutamate,"mGluR2 [1]; azi-CRD sensor, Glutamate + 10μM MNI-137, individual values (N=18)",0.9068 and 0.8983 and 0.8561 and 0.8443 and 0.8519 and 0.8996 and 0.8605 and 0.8249 and 0.9015 and 0.9193 and 0.8494 and 0.6551 and 0.8032 and 0.7602 and 0.8055 and 0.9262 and 0.8985 and 1.016
same,Mean max response (normalized max ΔFRET),"mGluR2 [1]; azi-CRD, 1 mM glutamate + 10 μM modulator, normalized to 1 mM glutamate",0.86
same,Mean ΔPotency,"mGluR2 [1]; azi-CRD, 10μM modulator, (([modulator + glutamate]EC50 – [glutamate] EC50)/[glutamate] EC50) × 100",19.3799
same,"ΔPotency, individual cell","mGluR2 [1]; azi-CRD, 10μM modulator, calculated from individual cell responses",8.099 and 2.046 and -1.414 and 21.9358 and 9.829 and 20.2062 and 22.8006 and -4.008 and 2.91 and 8.964 and 24.5302 and 18.4766 and 6.37 and 10.6935 and 59.9867 and 17.6119 and -18.5365 and 122.252 and 0.316 and -3.143 and -10.9263 and 95.4432 and 15.0175
same,Effect on receptor activation (calcium imaging) in the presence of glutamate,mGluR2 [2]; 10 μM NAM,block receptor activation
same,"Intracellular Ca2+ Response, % 1mM Glutamate","mGluR2 [2]; 1mM Glutamate + 15nM MNI-137, individual experiments",73.406% and 76.302% and 82.093%
same,Mean ΔEfficacy of glutamate,"mGluR2 [2]; Ca2+ response, 1 mM glutamate + 15 nM modulator, ([1 mM glutamate + modulator] - [1 mM glutamate]) × 100",-22.7329
same,"ΔEfficacy of glutamate, individual experiments","mGluR2 [2]; Ca2+ response, 1 mM glutamate + 15 nM modulator, single replicate",-23.6976 and -17.9069 and -26.5942
same,Mean ΔPotency of glutamate,"mGluR2 [2]; Ca2+ response, glutamate + 15 nM modulator, (([modulator + glutamate]EC50 – [glutamate]EC50)/[glutamate]EC50) × 100",30.7718
same,"ΔPotency of glutamate, individual experiments","mGluR2 [2]; Ca2+ response, glutamate + 15 nM modulator, single replicate",55.4467 and 26.9701 and 9.898
same,"Intracellular Ca2+ Response (normalized to 1mM glutamate), Mean",mGluR2 [2]; log[Glutamate] (M) -3,0.7727
same,"Intracellular Ca2+ Response (normalized to 1mM glutamate), Mean",mGluR2 [2]; log[Glutamate] (M) -3.60206,0.7226
same,"Intracellular Ca2+ Response (normalized to 1mM glutamate), Mean",mGluR2 [2]; log[Glutamate] (M) -4.1549,0.6149
same,"Intracellular Ca2+ Response (normalized to 1mM glutamate), Mean",mGluR2 [2]; log[Glutamate] (M) -4.52288,0.4711
same,"Intracellular Ca2+ Response (normalized to 1mM glutamate), Mean",mGluR2 [2]; log[Glutamate] (M) -5,0.2107
same,"Intracellular Ca2+ Response (normalized to 1mM glutamate), Mean",mGluR2 [2]; log[Glutamate] (M) -5.39794,0.08277
same,"Intracellular Ca2+ Response (normalized to 1mM glutamate), Mean",mGluR2 [2]; log[Glutamate] (M) -5.82391,0.01181
same,"Intracellular Ca2+ Response (normalized to 1mM glutamate), Mean",mGluR2 [2]; log[Glutamate] (M) -6.52288,0
same,"Intracellular Ca2+ Response (normalized to 1mM glutamate), Mean",mGluR2 [2]; log[Glutamate] (M) -7,0
same,"azi-ECL2 - ΔEfficacy, Mean ΔEfficacy","mGluR2 [3]; 10μM MNI-137, ([1 mM glutamate + modulator] - [1 mM glutamate]) × 100",-22.0861
same,Mean ΔPotency,"mGluR2 [3]; 10μM modulator, (([modulator + glutamate]EC50 – [glutamate] EC50)/[glutamate] EC50) × 100",179.936
same,"ΔPotency, individual cell responses","mGluR2 [3]; 10μM modulator, single cells, (([modulator + glutamate]EC50 – [glutamate] EC50)/[glutamate] EC50) × 100",208.526 and 269.842 and 265.754 and 289.307 and 19.9066 and 99.1307 and 118.401 and 168.622
same,Mean max response (normalized max ΔFRET),"mGluR2 [3]; azi-ECL2, 1 mM glutamate + 10 μM modulator, normalized to 1 mM glutamate",0.78
same,Hill slope of glutamate titration,"mGluR2 [3]; azi-ECL2 sensor, + 10 μM modulator",1.32
same,Mean normalized azi-ECL2 FRET response,mGluR2 [3]; log[Glutamate] (M) -3,0.7791
same,Mean normalized azi-ECL2 FRET response,mGluR2 [3]; log[Glutamate] (M) -4.1549,0.6793
same,Mean normalized azi-ECL2 FRET response,mGluR2 [3]; log[Glutamate] (M) -4.52288,0.5808
same,Mean normalized azi-ECL2 FRET response,mGluR2 [3]; log[Glutamate] (M) -5,0.314
same,Mean normalized azi-ECL2 FRET response,mGluR2 [3]; log[Glutamate] (M) -5.82391,0.01822
same,Mean normalized azi-ECL2 FRET response,mGluR2 [3]; log[Glutamate] (M) -6.52288,0
same,Mean normalized azi-ECL2 FRET response,mGluR2 [3]; log[Glutamate] (M) -7,0
same,Mean normalized azi-ECL2 FRET response,mGluR2 [3]; log[Glutamate] (M) -7.69897,0
same,Mean normalized azi-ECL2 FRET response,mGluR2 [3]; log[Glutamate] (M) -4.69897,0.4672
